Measured values reported in patent publication US11512097B2, “Heterocyclic compounds as Delta-5 desaturase inhibitors and methods of use” (Amgen Inc., priority 2019, dated 2022).
pIC50: −log10 of the molar value.

Biological target: T1, Delta-5-Desaturase (D5D), membrane preparations of D5D-overexpressing HEK293 6E cells (Homo sapiens, UniProt O60427)
T1 construct: expressed in transfected cells; host or cells: HEK293 6E cells (membrane preparation)
Test: In vitro measurement of Delta-5-Desaturase inhibitory activity using DGLA-CoA and Arachidonyl-CoA mass spectrometric assays
Assay type: biochemical
Details: D5D membrane 10 μg/mL, one-hour incubation, average of at least two independent runs
Summary of the method: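 Substrate mix (0.01 mM DGLA with NADH, ATP, coenzyme A) was incubated 1 h at room temperature with HEK293 6E D5D membranes at 10 μg/mL final, pH 7.5. Negative-mode SPE-MS/MS monitored DGLA-CoA (m/z 526.6) and arachidonyl-CoA (m/z 525.6). Inhibition normalised to DMSO and no-enzyme wells gave IC50s, mean of ≥2 runs.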

T1 sequence (O60427 whole entry, species assumed): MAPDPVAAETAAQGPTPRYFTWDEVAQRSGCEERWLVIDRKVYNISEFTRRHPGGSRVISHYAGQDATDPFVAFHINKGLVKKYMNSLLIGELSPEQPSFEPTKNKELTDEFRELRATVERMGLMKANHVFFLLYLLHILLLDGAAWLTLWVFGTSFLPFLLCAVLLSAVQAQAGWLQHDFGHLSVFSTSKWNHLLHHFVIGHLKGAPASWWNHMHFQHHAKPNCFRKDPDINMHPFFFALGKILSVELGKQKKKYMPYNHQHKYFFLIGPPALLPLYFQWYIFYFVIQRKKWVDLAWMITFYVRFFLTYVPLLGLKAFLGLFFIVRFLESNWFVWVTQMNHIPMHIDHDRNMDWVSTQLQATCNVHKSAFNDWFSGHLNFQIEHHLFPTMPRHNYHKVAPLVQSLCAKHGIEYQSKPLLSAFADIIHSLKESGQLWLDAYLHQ

With Cc1cn2c(=O)c(-c3cnn(CCC(F)(F)F)c3)c(C(F)(F)F)nc2n1CC1CC1 [Example 66, 1-(cyclopropylmethyl)-2-methyl-7-(trifluoromethyl)-6-[1-(3,3,3-trifluoropropyl)-1H-pyrazol-4-yl]-1H,5H-imidazo[1,2-a]pyrimidin-5-one] as the compound, how does the pIC50 read?
The pIC50 was 8.18.

Cc1cn2c(=O)c(-c3cnn(CCC(F)(F)F)c3)c(C(F)(F)F)nc2n1CCN(C)C [Example 67, 1-[2-(dimethylamino)ethyl]-2-methyl-7-(trifluoromethyl)-6-[1-(3,3,3-trifluoropropyl)-1H-pyrazol-4-yl]-1H,5H-imidazo[1,2-a]pyrimidin-5-one] was tested. Which pIC50 did it give?
The pIC50 was 5.83.

Cc1cn2c(=O)c(-c3ccc(OCC(F)(F)F)cc3)c(C(F)(F)F)nc2n1CC1CC1 [Example 68, 1-(cyclopropylmethyl)-2-methyl-6-[4-(2,2,2-trifluoroethoxy)phenyl]-7-(trifluoromethyl)-1H,5H-imidazo[1,2-a]pyrimidin-5-one] was tested. Which pIC50 did it give?
Its pIC50 is 6.45.

With Cc1cn2c(=O)c(-c3ccc(OCC(F)(F)F)cc3)c(C(F)(F)F)nc2n1CCN(C)C [Example 69, 1-[2-(dimethylamino)ethyl]-2-methyl-6-[4-(2,2,2-trifluoroethoxy)phenyl]-7-(trifluoromethyl)-1H,5H-imidazo[1,2-a]pyrimidin-5-one] as the compound, how does the pIC50 read?
Its pIC50 is 4.87.

With Cc1cn2c(=O)c(-c3ccn(CC(F)(F)C(F)(F)F)n3)c(C(F)(F)F)nc2n1C [Example 70, 1,2-dimethyl-6-[1-(2,2,3,3,3-pentafluoropropyl)-1H-pyrazol-3-yl]-7-(trifluoromethyl)-1H,5H-imidazo[1,2-a]pyrimidin-5-one] as the compound, how does the pIC50 read?
The pIC50 was 5.29.

With COc1cn2c(=O)c(-c3cnn(CC(F)(F)C(F)(F)F)c3)c(C(F)(F)F)nc2n1C [Example 71, 2-methoxy-1-methyl-6-[1-(2,2,3,3,3-pentafluoropropyl)-1H-pyrazol-4-yl]-7-(trifluoromethyl)-1H,5H-imidazo[1,2-a]pyrimidin-5-one] as the compound, how does the pIC50 read?
The pIC50 was 7.48.

With COc1cn2c(=O)c(-c3cnn(CCC(F)(F)F)c3)c(C(F)(F)F)nc2n1C [Example 72, 2-methoxy-1-methyl-7-(trifluoromethyl)-6-[1-(3,3,3-trifluoropropyl)-1H-pyrazol-4-yl]-1H,5H-imidazo[1,2-a]pyrimidin-5-one] as the compound, how does the pIC50 read?
Its pIC50 is 6.87.

Cc1cn2c(=O)c(-c3cnn(CC(F)(F)C(F)(F)F)c3)c(C(F)(F)F)nc2[nH]1 [Example 73, 2-methyl-6-[1-(2,2,3,3,3-pentafluoropropyl)-1H-pyrazol-4-yl]-7-(trifluoromethyl)-1H,5H-imidazo[1,2-a]pyrimidin-5-one] was tested. Which pIC50 did it give?
Its pIC50 is 7.45.

Cc1cn2c(=O)c(-c3cnn(CCC(F)(F)F)c3)c(C(F)(F)F)nc2[nH]1 [Example 74, 2-methyl-7-(trifluoromethyl)-6-[1-(3,3,3-trifluoropropyl)-1H-pyrazol-4-yl]-1H,5H-imidazo[1,2-a]pyrimidin-5-one] was tested. Which pIC50 did it give?
The pIC50 was 8.33.

Cc1cn2c(=O)c(-c3ccc(OCC(F)(F)F)cc3)c(C(F)(F)F)nc2[nH]1 [Example 75, 2-methyl-6-[4-(2,2,2-trifluoroethoxy)phenyl]-7-(trifluoromethyl)-1H,5H-imidazo[1,2-a]pyrimidin-5-one] was tested. Which pIC50 did it give?
The pIC50 was 8.20.

With [2H]C([2H])([2H])n1c(C)cn2c(=O)c(-c3cnn(CC(F)(F)C(F)(F)F)c3)c(C(F)(F)F)nc12 [Example 77, 1-(2H3)methyl-2-methyl-6-[1-(2,2,3,3,3-pentafluoropropyl)-1H-pyrazol-4-yl]-7-(trifluoromethyl)-1H,5H-imidazo[1,2-a]pyrimidin-5-one] as the compound, how does the pIC50 read?
The pIC50 was 7.62.

[2H]C([2H])([2H])n1c(C)cn2c(=O)c(-c3cnn(CCC(F)(F)F)c3)c(C(F)(F)F)nc12 [Example 78, 1-(^2H3)methyl-2-methyl-7-(trifluoromethyl)-6-[1-(3,3,3-trifluoropropyl)-1H-pyrazol-4-yl]-1H,5H-imidazo[1,2-a]pyrimidin-5-one] was tested. Which pIC50 did it give?
The pIC50 was 7.55.

With Cc1cn2c(=O)c(-c3cnn(CC(F)(F)C(F)(F)F)c3)c(C(F)(F)F)nc2n1CCO [Example 79, 1-(2-hydroxyethyl)-2-methyl-6-[1-(2,2,3,3,3-pentafluoropropyl)-1H-pyrazol-4-yl]-7-(trifluoromethyl)-1H,5H-imidazo[1,2-a]pyrimidin-5-one] as the compound, how does the pIC50 read?
The pIC50 was 7.93.

How did the pIC50 turn out when COC(=O)n1c(C)cn2c(=O)c(-c3cnn(CC(F)(F)C(F)(F)F)c3)c(C(F)(F)F)nc12 [Example 80, methyl 2-methyl-5-oxo-6-[1-(2,2,3,3,3-pentafluoropropyl)-1H-pyrazol-4-yl]-7-(trifluoromethyl)-1H,5H-imidazo[1,2-a]pyrimidine-1-carboxylate] was run?
The pIC50 was 7.26.

With Cc1cn2c(=O)c(-c3cnn(CCC(F)(F)F)c3)c(C(F)(F)F)nc2n1CC1CC1(F)F (centres unmarked) [Example 81, 1-[(2,2-difluorocyclopropyl)methyl]-2-methyl-7-(trifluoromethyl)-6-[1-(3,3,3-trifluoropropyl)-1H-pyrazol-4-yl]-1H,5H-imidazo[1,2-a]pyrimidin-5-one] as the compound, how does the pIC50 read?
Its pIC50 is 6.98.

How did the pIC50 turn out when Cc1cn2c(=O)c(-c3cnn(CCC(F)(F)F)c3)c(C(F)(F)F)nc2n1CC1CC(F)(F)C1 [Example 82, 1-[(3,3-difluorocyclobutyl)methyl]-2-methyl-7-(trifluoromethyl)-6-[1-(3,3,3-trifluoropropyl)-1H-pyrazol-4-yl]-1H,5H-imidazo[1,2-a]pyrimidin-5-one] was run?
The pIC50 was 5.69.

With Cc1cn2c(=O)c(-c3cnn(CCC(F)(F)F)c3)c(C(F)(F)F)nc2n1CCO [Example 83, 1-(2-hydroxyethyl)-2-methyl-7-(trifluoromethyl)-6-[1-(3,3,3-trifluoropropyl)-1H-pyrazol-4-yl]-1H,5H-imidazo[1,2-a]pyrimidin-5-one] as the compound, how does the pIC50 read?
The pIC50 was 7.94.

How did the pIC50 turn out when Cc1cn2c(=O)c(-c3cnn(CC(F)(F)C(F)(F)F)c3)c(C(F)(F)F)nc2n1CCN(C)C [Example 84, 1-[2-(dimethylamino)ethyl]-2-methyl-6-[1-(2,2,3,3,3-pentafluoropropyl)-1H-pyrazol-4-yl]-7-(trifluoromethyl)-1H,5H-imidazo[1,2-a]pyrimidin-5-one] was run?
Its pIC50 is 6.71.

C#CCn1c(C)cn2c(=O)c(-c3cnn(CC(F)(F)C(F)(F)F)c3)c(C(F)(F)F)nc12 [Example 85, 2-methyl-6-[1-(2,2,3,3,3-pentafluoropropyl)-1H-pyrazol-4-yl]-1-(prop-2-yn-1-yl)-7-(trifluoromethyl)-1H,5H-imidazo[1,2-a]pyrimidin-5-one] was tested. Which pIC50 did it give?
Its pIC50 is 8.15.

With Cc1cn2c(=O)c(-c3cnn(CC(F)(F)C(F)(F)F)c3)c(C(F)(F)F)nc2n1CC#N [Example 86, 2-{2-methyl-5-oxo-6-[1-(2,2,3,3,3-pentafluoropropyl)-1H-pyrazol-4-yl]-7-(trifluoromethyl)-1H,5H-imidazo[1,2-a]pyrimidin-1-yl}acetonitrile] as the compound, how does the pIC50 read?
Its pIC50 is 7.96.

Cc1cn2c(=O)c(-c3cnn(CCC(F)(F)F)c3)c(C(F)(F)F)nc2n1CC#N [Example 87, 2-[2-methyl-5-oxo-7-(trifluoromethyl)-6-[1-(3,3,3-trifluoropropyl)-1H-pyrazol-4-yl]-1H,5H-imidazo[1,2-a]pyrimidin-1-yl]acetonitrile] was tested. Which pIC50 did it give?
The pIC50 was 8.43.

How did the pIC50 turn out when Cc1cn2c(=O)c(-c3cnn(CC(F)(F)C(F)(F)F)c3)c(C(F)(F)F)nc2n1CC(C)(C)O [Example 88, 1-(2-hydroxy-2-methylpropyl)-2-methyl-6-[1-(2,2,3,3,3-pentafluoropropyl)-1H-pyrazol-4-yl]-7-(trifluoromethyl)-1H,5H-imidazo[1,2-a]pyrimidin-5-one] was run?
Its pIC50 is 6.20.

How did the pIC50 turn out when Cc1cn2c(=O)c(-c3cnn(CC(F)(F)C(F)(F)F)c3)c(C(F)(F)F)nc2n1CCC1(O)CC1 [Example 89, 1-[2-(1-hydroxycyclopropyl)ethyl]-2-methyl-6-[1-(2,2,3,3,3-pentafluoropropyl)-1H-pyrazol-4-yl]-7-(trifluoromethyl)-1H,5H-imidazo[1,2-a]pyrimidin-5-one] was run?
The pIC50 was 7.27.

How did the pIC50 turn out when Cc1cn2c(=O)c(-c3cnn(CC(F)(F)C(F)(F)F)c3)c(C(F)(F)F)nc2n1CC1COC1 [Example 90, 2-methyl-1-[(oxetan-3-yl)methyl]-6-[1-(2,2,3,3,3-pentafluoropropyl)-1H-pyrazol-4-yl]-7-(trifluoromethyl)-1H,5H-imidazo[1,2-a]pyrimidin-5-one] was run?
Its pIC50 is 6.98.

Cc1cn2c(=O)c(-c3cnn(CC(F)(F)C(F)(F)F)c3)c(C(F)(F)F)nc2n1C1COC1 [Example 91, 2-methyl-1-(oxetan-3-yl)-6-[1-(2,2,3,3,3-pentafluoropropyl)-1H-pyrazol-4-yl]-7-(trifluoromethyl)-1H,5H-imidazo[1,2-a]pyrimidin-5-one] was tested. Which pIC50 did it give?
The pIC50 was 8.00.

With Cc1cn2c(=S)c(-c3cnn(CC(F)(F)C(F)(F)F)c3)c(C(F)(F)F)nc2n1C [Example 92, 1,2-dimethyl-6-[1-(2,2,3,3,3-pentafluoropropyl)-1H-pyrazol-4-yl]-7-(trifluoromethyl)-1H,5H-imidazo[1,2-a]pyrimidine-5-thione] as the compound, how does the pIC50 read?
The pIC50 was 6.88.

With Cc1cn2c(=O)c(-c3cnn(CC(F)(F)C(F)(F)F)c3)c(C(F)(F)F)nc2n1-c1ccccn1 [Example 93, 2-methyl-6-[1-(2,2,3,3,3-pentafluoropropyl)-1H-pyrazol-4-yl]-1-(pyridin-2-yl)-7-(trifluoromethyl)-1H,5H-imidazo[1,2-a]pyrimidin-5-one] as the compound, how does the pIC50 read?
The pIC50 was 6.17.

How did the pIC50 turn out when Cc1cn2c(=O)c(-c3cnn(CCC(F)(F)F)c3)c(C(F)(F)F)nc2n1-c1ccccn1 [Example 94, 2-methyl-1-(pyridin-2-yl)-7-(trifluoromethyl)-6-[1-(3,3,3-trifluoropropyl)-1H-pyrazol-4-yl]-1H,5H-imidazo[1,2-a]pyrimidin-5-one] was run?
The pIC50 was 6.11.

Cc1cn2c(=O)c(-c3cnn(CC(F)(F)C(F)(F)F)c3)c(C(F)(F)F)nc2n1-c1cnccn1 [Example 95, 2-methyl-6-[1-(2,2,3,3,3-pentafluoropropyl)-1H-pyrazol-4-yl]-1-(pyrazin-2-yl)-7-(trifluoromethyl)-1H,5H-imidazo[1,2-a]pyrimidin-5-one] was tested. Which pIC50 did it give?
The pIC50 was 6.61.
